Patent US12036224B2, “Formulations, methods, kits, and dosage forms for treating atopic dermatitis and for improved stability of an active pharmaceutical ingredient” (Libertas Bio, Inc., priority 2017, dated 2024)

Molecular target: JAK
Experiment: Pre-clinical kinase inhibition, JAK
Format: biochemical
Conditions: pre-clinical studies
Description: A formulation of the disclosure comprising 2-(1-(4-((4-(4-hydroxypiperidin-1-yl)phenyl)amino)-5-oxo-5,6-dihydropyrimido[4,5-d]pyridazin-2-yl)piperidin-4-yl)acetonitrile comprises a potent inhibitor of Spleen Tyrosine Kinase (SYK) and Janus Kinases (JAK).

N#CCC1CCN(c2nc(Nc3ccc(N4CCC(O)CC4)cc3)c3c(=O)[nH]ncc3n2)CC1 [Compound 1, 2-(1-(4-((4-(4-hydroxypiperidin-1-yl)phenyl)amino)-5-oxo-5,6-dihydropyrimido[4,5-d]pyridazin-2-yl)piperidin-4-yl)acetonitrile]
IC50 against JAK: low nM
